Consider one molecule from patent publication EP4316461A1, “A PRESERVATIVE COMPOSITION” (BRAIN Biotech AG, priority 2022, dated 2024).

Format in all cases: cell-based
The test system of one assay is Porphyromonas gingivalis. The assay is described as follows: Antimicrobial activity (MIC). The note with it: Porphyromonas gingivalis, DSM20709; Strain ID DSM 20709; potato dextrose broth pH 3.8; read-out: Minimal Inhibitory Concentration (MIC).
Assay [1] relates to Cladosporium cladosporioides. Nature of the assay: Antimicrobial activity (MIC). The note with it: Cladosporium cladosporioides; Strain ID DSM19653; potato dextrose broth pH 3.8; read-out: Minimal Inhibitory Concentration (MIC).
For the next assay, the system named is Botrytis cinerea. Nature of the assay: Antimicrobial activity (MIC). Conditions: Botrytis cinerea, DSM5145; Strain ID DSM 5145; potato dextrose broth pH 3.8; read-out: Minimal Inhibitory Concentration (MIC).
The next assay relates to Saccharomyces cerevisiae. Nature of the assay: Antimicrobial activity (MIC). Conditions: Saccharomyces cerevisiae, DSM2548; Strain ID DSM 2548; potato dextrose broth pH 3.8; read-out: Minimal Inhibitory Concentration (MIC).
A further assay has as its system Enterobacter cloacae. Nature of the assay: Antimicrobial activity (MIC). The note with it: Enterobacter cloacae, DSM6234; Strain ID DSM 6234; potato dextrose broth pH 3.8; read-out: Minimal Inhibitory Concentration (MIC).
For a further assay, the system named is Alternaria alternata. Nature of the assay: Antimicrobial activity (MIC). The note with it: Alternaria alternata, DSM12633; Strain ID DSM 12633; potato dextrose broth pH 3.8; read-out: Minimal Inhibitory Concentration (MIC).
Another assay has as its system Penicillium expansum. The assay is described as follows: Antimicrobial activity (MIC). Conditions: Penicillium expansum, DSM62841; Strain ID DSM 62841; potato dextrose broth pH 3.8; read-out: Minimal Inhibitory Concentration (MIC).
The subject of assay [2] is Leuconostoc mesenteroides ssp. mesenteroides. Nature of the assay: Antimicrobial activity (MIC). The note with it: Leuconostoc mesenteroides, DSM20343; Strain ID DSM 20343; potato dextrose broth pH 3.8; read-out: Minimal Inhibitory Concentration (MIC).
In a further assay the test system is Clostridium sporogenes. Nature of the assay: Antimicrobial activity (MIC). The note with it: Clostridium sporogenes, ATCC19404; Strain ID ATCC 19404; potato dextrose broth pH 3.8; read-out: Minimal Inhibitory Concentration (MIC).
Another assay concerns Clostridium perfringens. Nature of the assay: microbe, parasite or virus in culture. Conditions: Clostridium perfringens, DSM756, pH 3.8, read-out: Minimal Inhibitory Concentration (MIC).
Another assay has as its system Aspergillus brasiliensis. The assay is described as follows: Antimicrobial activity (MIC). The note with it: Aspergillus brasiliensis, DSM1988; Strain ID DSM 1988; potato dextrose broth pH 3.8; read-out: Minimal Inhibitory Concentration (MIC).
Another assay deals with Actinomyces viscosus. Nature of the assay: Antimicrobial activity (MIC). The note with it: Actinomyces viscosus; Strain ID DSM43798; potato dextrose broth pH 3.8; read-out: Minimal Inhibitory Concentration (MIC).
Another assay concerns Leuconostoc lactis. Nature of the assay: Antimicrobial activity (MIC). Conditions: Leuconostoc lactis, DSM20202; Strain ID DSM 20202; potato dextrose broth pH 3.8; read-out: Minimal Inhibitory Concentration (MIC).

Structures are written as SMILES. ≈ marks a conversion by molar mass, not a printed value.

For the molecule `C[C@@H]1O[C@@H](O[C@H]2[C@H](O[C@H]3CC[C@@]4(C)[C@@H](CC[C@]5(C)[C@@H]4CC=C4[C@@H]6CC(C)(C)CC[C@]6(C(=O)O)CC[C@]45C)[C@]3(C)CO)OC[C@H](O)[C@@H]2O)[C@H](O)[C@H](O[C@@H]2OC[C@@H](O)[C@H](O)[C@H]2O)[C@H]1O` [A, Sapindoside B [30994-75-3]], the MIC (in the assay on Porphyromonas gingivalis; in assay [1]; in the assay with Botrytis cinerea; in the assay with Saccharomyces cerevisiae; in the assay on Enterobacter cloacae; in the assay with Alternaria alternata) was above 80 µg/mL in each case. Also, the MIC with Penicillium expansum was above 500 µg/mL; in assay [2], above 80 µg/mL; with Clostridium sporogenes, 80 µg/mL (≈ 90.6 µM); with Clostridium perfringens, above 80 µg/mL; with Aspergillus brasiliensis, above 80 µg/mL; in the assay with Actinomyces viscosus it was above 80 µg/mL. Moreover, the MIC with Leuconostoc lactis was determined as 80 µg/mL (≈ 90.6 µM).
